According to PubChem BioAssay (NCI):
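Assay format: 96-well plates, 48-hour exposure. At the GI50, growth is halved. At the TGI there is no net growth.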

Legend:
Assay in all cases: NCI-60 cell line screen, 48 h
MDA-MB-231 breast = system: MDA-MB-231 breast
SK-MEL-2 melanoma = system: SK-MEL-2 melanoma
A498 renal = system: A498 renal
SF-539 CNS = system: SF-539 CNS
HOP-62 NSCLC = system: HOP-62 NSCLC
UACC-62 melanoma = system: UACC-62 melanoma
T-47D breast = system: T-47D breast
HCT-15 colon = system: HCT-15 colon
M14 melanoma = system: M14 melanoma
CCRF-CEM leukemia = system: CCRF-CEM leukemia
SNB-75 CNS = system: SNB-75 CNS
UO-31 renal = system: UO-31 renal
PC-3 prostate = system: PC-3 prostate
K-562 leukemia = system: K-562 leukemia
MDA-MB-435 = system: MDA-MB-435
U251 CNS = system: U251 CNS
SR leukemia = system: SR leukemia
OVCAR-8 ovarian = system: OVCAR-8 ovarian
SNB-19 CNS = system: SNB-19 CNS
KM12 colon = system: KM12 colon
MCF7 breast = system: MCF7 breast
CAKI-1 renal = system: CAKI-1 renal
SK-MEL-5 melanoma = system: SK-MEL-5 melanoma
MOLT-4 leukemia = system: MOLT-4 leukemia
HOP-92 NSCLC = system: HOP-92 NSCLC
NCI-H226 lung = system: NCI-H226 lung
NCI/ADR-RES ovarian = system: NCI/ADR-RES ovarian
NCI-H23 lung = system: NCI-H23 lung
NCI-H460 lung = system: NCI-H460 lung
RPMI-8226 leukemia = system: RPMI-8226 leukemia
ACHN renal = system: ACHN renal
COLO 205 colon = system: COLO 205 colon
SK-MEL-28 melanoma = system: SK-MEL-28 melanoma
HT29 colon = system: HT29 colon
HCC-2998 colon = system: HCC-2998 colon
SF-295 CNS = system: SF-295 CNS
786-0 renal = system: 786-0 renal
OVCAR-4 ovarian = system: OVCAR-4 ovarian
EKVX NSCLC = system: EKVX NSCLC
OVCAR-5 ovarian = system: OVCAR-5 ovarian
SF-268 CNS = system: SF-268 CNS
SN12C renal = system: SN12C renal
SW-620 colon = system: SW-620 colon
OVCAR-3 ovarian = system: OVCAR-3 ovarian
TK-10 renal = system: TK-10 renal
RXF 393 renal = system: RXF 393 renal
HCT-116 colon = system: HCT-116 colon
IGROV1 ovarian = system: IGROV1 ovarian
NCI-H522 lung = system: NCI-H522 lung
UACC-257 melanoma = system: UACC-257 melanoma
SK-OV-3 ovarian = system: SK-OV-3 ovarian
DU-145 prostate = system: DU-145 prostate
A549 NSCLC = system: A549 NSCLC
BT-549 breast = system: BT-549 breast
HS 578T breast = system: HS 578T breast
MALME-3M melanoma = system: MALME-3M melanoma

Work on `C#C[C@]1(O)CC[C@H]2[C@@H]3CC=C4c5sc(Nc6ccc(C)cn6)nc5CC[C@]4(C)[C@H]3CC[C@@]21C` yielded a GI50 (MDA-MB-231 breast) of 1280 nM, a TGI (MDA-MB-231 breast) of 4000 nM and a GI50 (SK-MEL-2 melanoma) of 741 nM. The TGI (SK-MEL-2 melanoma) was 3230 nM, the GI50 (A498 renal) was 376 nM and the TGI (A498 renal) was 1120 nM. It also gave a GI50 (SF-539 CNS) of 203 nM, a TGI (SF-539 CNS) of 646 nM and a GI50 (HOP-62 NSCLC) of 1070 nM. For the same compound, the TGI (HOP-62 NSCLC) was 4340 nM, the GI50 (UACC-62 melanoma) was 363 nM and the TGI (UACC-62 melanoma) was 1430 nM. It also gave a GI50 (T-47D breast) of 1970 nM, a TGI (T-47D breast) of 12100 nM and a GI50 (HCT-15 colon) of 1000 nM. It also gave a TGI (HCT-15 colon) of 2740 nM, a GI50 (M14 melanoma) of 536 nM and a TGI (M14 melanoma) of 2550 nM. It also gave a GI50 (CCRF-CEM leukemia) of 431 nM, a TGI (CCRF-CEM leukemia) of 3300 nM and a GI50 (SNB-75 CNS) of 332 nM. It also gave a TGI (SNB-75 CNS) of 3450 nM, a GI50 (UO-31 renal) of 378 nM and a TGI (UO-31 renal) of 1620 nM. For the same compound, the GI50 (PC-3 prostate) was 379 nM, the TGI (PC-3 prostate) was 5080 nM and the GI50 (K-562 leukemia) was 408 nM. The TGI (K-562 leukemia) was greater than 100000 nM, the GI50 (MDA-MB-435) was 715 nM and the TGI (MDA-MB-435) was 3670 nM. The GI50 (U251 CNS) was 537 nM, the TGI (U251 CNS) was 5770 nM and the GI50 (SR leukemia) was 343 nM. It also gave a GI50 (OVCAR-8 ovarian) of 2020 nM, a TGI (OVCAR-8 ovarian) greater than 27100 nM and a GI50 (SNB-19 CNS) of 1220 nM. For the same compound, the TGI (SNB-19 CNS) was 4830 nM, the GI50 (KM12 colon) was 1050 nM and the TGI (KM12 colon) was 4510 nM. It also gave a GI50 (MCF7 breast) of 402 nM, a TGI (MCF7 breast) of 1920 nM and a GI50 (CAKI-1 renal) of 597 nM. It also gave a TGI (CAKI-1 renal) of 4000 nM, a GI50 (SK-MEL-5 melanoma) of 1270 nM and a TGI (SK-MEL-5 melanoma) of 2580 nM. For the same compound, the GI50 (MOLT-4 leukemia) was 300 nM, the GI50 (HOP-92 NSCLC) was 877 nM and the TGI (HOP-92 NSCLC) was 4130 nM. It also gave a GI50 (NCI-H226 lung) of 2160 nM, a TGI (NCI-H226 lung) of 8320 nM and a GI50 (NCI/ADR-RES ovarian) of 1860 nM. For the same compound, the TGI (NCI/ADR-RES ovarian) was 6940 nM, the GI50 (NCI-H23 lung) was 1240 nM and the TGI (NCI-H23 lung) was 5160 nM. The GI50 (NCI-H460 lung) was 652 nM, the TGI (NCI-H460 lung) was 5290 nM and the GI50 (RPMI-8226 leukemia) was 199 nM. It also gave a TGI (RPMI-8226 leukemia) of 609 nM, a GI50 (ACHN renal) of 907 nM and a TGI (ACHN renal) of 11200 nM. It also gave a GI50 (COLO 205 colon) of 1490 nM, a TGI (COLO 205 colon) of 3680 nM and a GI50 (SK-MEL-28 melanoma) of 254 nM. For the same compound, the TGI (SK-MEL-28 melanoma) was 727 nM, the GI50 (HT29 colon) was 1200 nM and the TGI (HT29 colon) was 3260 nM. The GI50 (HCC-2998 colon) was 2230 nM, the TGI (HCC-2998 colon) was 7260 nM and the GI50 (SF-295 CNS) was 184 nM. It also gave a TGI (SF-295 CNS) of 411 nM, a GI50 (786-0 renal) of 198 nM and a TGI (786-0 renal) of 610 nM. The GI50 (OVCAR-4 ovarian) was 1900 nM, the TGI (OVCAR-4 ovarian) was 13800 nM and the GI50 (EKVX NSCLC) was 994 nM. For the same compound, the TGI (EKVX NSCLC) was 9920 nM, the GI50 (OVCAR-5 ovarian) was 2130 nM and the TGI (OVCAR-5 ovarian) was 6760 nM. It also gave a GI50 (SF-268 CNS) of 1070 nM, a TGI (SF-268 CNS) of 10600 nM and a GI50 (SN12C renal) of 2520 nM. It also gave a TGI (SN12C renal) of 10500 nM, a GI50 (SW-620 colon) of 657 nM and a TGI (SW-620 colon) of 2230 nM. The GI50 (OVCAR-3 ovarian) was 1850 nM, the TGI (OVCAR-3 ovarian) was 6150 nM and the GI50 (TK-10 renal) was 2550 nM. The TGI (TK-10 renal) was 9900 nM, the GI50 (RXF 393 renal) was 53.6 nM and the TGI (RXF 393 renal) was 261 nM. The GI50 (HCT-116 colon) was 504 nM, the TGI (HCT-116 colon) was 2170 nM and the GI50 (IGROV1 ovarian) was 1750 nM. For the same compound, the TGI (IGROV1 ovarian) was 12900 nM, the GI50 (NCI-H522 lung) was 2010 nM and the TGI (NCI-H522 lung) was 4580 nM. The GI50 (UACC-257 melanoma) was 947 nM, the TGI (UACC-257 melanoma) was 3350 nM and the GI50 (SK-OV-3 ovarian) was 717 nM. It also gave a TGI (SK-OV-3 ovarian) of 3300 nM, a GI50 (DU-145 prostate) of 1840 nM and a TGI (DU-145 prostate) of 11500 nM. It also gave a GI50 (A549 NSCLC) of 1350 nM, a TGI (A549 NSCLC) of 12300 nM and a GI50 (BT-549 breast) of 566 nM. For the same compound, the TGI (BT-549 breast) was 3050 nM, the GI50 (HS 578T breast) was 265 nM and the TGI (HS 578T breast) was 986 nM. For the same compound, the GI50 (MALME-3M melanoma) was 559 nM and the TGI (MALME-3M melanoma) was 2420 nM.
